Test results published in patent publication US10471030B2, “Immunomodulatory and differentiating function selective retinoid and rexinoid compounds in combination with immune modulators for cancer immunotherapy” (Io Therapeutics, Inc., priority 2017, dated 2019).

How the values were obtained:
NB4 cells = assay: CFU experiments off and on stroma, NB4 cells; format: cell-based; conditions: 10^−7 M ATRA, IRX5183, or 10^−8 M AM80
Text: (§1) Data across three independent experiments.

[1] = test system: MM cell lines and MM CD138+ primary cells; assay: BTZ sensitivity of MM cells, clonogenic or cellular recovery, liquid or BM stroma; format: cell-based, human; conditions: BM stroma with 1 μM test agent for 5 days, then BTZ 2.5 nM for 48 hr
Protocol: 24-well plates were coated with 0.1% gelatin in PBS for 30 min at 37° C. The gelatin solution was removed, and the stromal cells were cultured overnight at a density of 5×10^4 cells/well to obtain a confluent monolayer. At that time, MM cell lines or primary MM cells (1×10^5 in 2 ml) were added to the stroma cultures. The stroma cocultures were incubated at 37° C. in RPMI containing 10% FCS, L-glutamine, and P/S, with or without AGN194310 (1 μM for 5 days), R115866 (1 μM for 5 days), IRX5183 (1 μM for 5 days), or BTZ (2.5 nM for 48 hr).
MM cells were separated from BM stromal cells by gently pipetting several times around the well. Detached cells were centrifuged, resuspended in fresh media, and incubated in a 24-well plate for 1 hr at 37° C. During this short incubation period, contaminating stromal cells attached to the well, while MM cells remained in suspension. MM cells were then recovered by gently pipetting. This protocol was used for qRT-PCR and CFU coculture experiments. The purity achieved using this protocol was confirmed by flow cytometry to be 98%-99% MM cells and less than 2% contaminating stroma.
After treatment, MM cells were collected, washed with PBS, and plated at a density of 5,000 cells/ml in 1 ml of 1.32% methylcellulose supplemented with 30% FBS, 10% BSA, L-glutamine, P/S, and 0.1 mM β-ME. Cells were plated in triplicate in 35-mm culture dishes, incubated at 37° C., and scored for the presence of colonies 14 days later.
To determine whether decreased retinoid signaling contributes to BTZ resistance within the BM niche, MM cell lines and MM CD138+ primary cells were incubated with BM stroma for 5 days, followed by BTZ treatment.
Strategies to overcome microenvironment-dependent chemoprotection have focused on mobilization of cancer cells from the BM niche into the peripheral circulation. It was analyzed whether the change in phenotype and subsequent BTZ resistance of MM cells were lost upon separation from the BM stroma, a process that mimics mobilization. To this end, H929 cells were separated from BM mesenchymal cells following a 5-day stroma co-culture, incubated in fresh media (RPMI with 10% FBS) for 0 to 48 hr, and then treated with BTZ. […] Thus, microenvironment-dependent BTZ resistance induced by the change in MM cell phenotype may not immediately be reversed by tumor mobilization.

OCI-AML3 cells = assay: CFU experiments off and on stroma, OCI-AML3 cells; format: cell-based; conditions: 10^−6 M ATRA, IRX5183, or 10^−7 M AM80
Text: as §1

CC1(C)CCC(C)(C)c2c1cc(C(=O)Nc1cc(F)c(C(=O)O)c(F)c1)c(O)c2Cl [IRX5183]
clonogenic growth (CFU) (NB4 cells): decrease in clonogenic growth compared to control
stroma-induced BTZ resistance [1]: overcome
clonogenic growth (CFU) (OCI-AML3 cells): decrease in clonogenic growth compared to control
